Measurements from PMC8956739, “A synthetic lipopeptide targeting top-priority multidrug-resistant Gram-negative pathogens” (Nature Communications, 2022).
≈ marks a conversion by molar mass, not a printed value. Where “and” joins values, the source holds several entries; their conditions need not be identical. Identical values can stand only once. Like-named read-outs stand apart in the source and are kept apart here. Residues, ends and D or L forms follow the SMILES beside them.

Legend:
[1] = tested on: A. baumannii FADDI-AB156; test: Neutropenic mouse pneumonia model, polymyxin-resistant isolate; format: in vivo; conditions: for Tukey HSD diff, Pre-treatment minus treated group (Log10 CFU/lung) / Tukey HSD diff, Vehicle minus treated group (Log10 CFU/lung): Fig. e; for Log10 CFU/lung: Figure 3e, individual mice
Protocol: (§1) The experimental methodology for the neutropenic mouse lung infection model was previously described in detail. Briefly, Swiss mice (female, 7-week-old, 22–28 g) were rendered neutropenic by intraperitoneal administration of cyclophosphamide, 4 days (150 mg/kg) and 1 day (100 mg/kg) prior to inoculation. Lung infection was established by the administration of 25 µL of early log-phase bacterial suspension (polymyxin-susceptible or resistant isolate, 4 × 10^7 CFU/mL), directly into the lungs via the trachea using a MicroSprayer™ device. Lipopeptide solutions were prepared in sterile saline. At 2 h after inoculation, mice (n = 3 or 4) were administered lipopeptide (45–240 mg/kg/d free base) or control (sterile saline) via an intraperitoneal or subcutaneous bolus injection in three divided doses every 8 h. At 0 or 24 h after the administration of lipopeptide solution or saline (control), animals were euthanized and lungs were collected and homogenized under sterile conditions. Homogenate was filtered and the filtrate was collected, serially diluted in sterile saline, and spread on nutrient agar plates. Agar plates were incubated at 37 °C overnight for bacterial colony counting and the bacterial load of the lung (log10 CFU/lung) in each mouse was calculated. In vivo efficacy was calculated as the difference of the log10 CFU/lung values between the treated mice at 24 h and the pre-treatment (control) at 0 h (Δlog10 CFU/lung = log10 [treated] CFU/lung − log10 [pre-treatment] CFU/lung).

[2] = tested on: P. aeruginosa FADDI-PA102; test: as above; format: in vivo; conditions: for Tukey HSD diff, Pre-treatment minus treated group (Log10 CFU/lung) / Tukey HSD diff, Vehicle minus treated group (Log10 CFU/lung): Fig. d; for Log10 CFU/lung: Figure 3d, individual mice
Protocol: as §1

[3] = tested on: K. pneumoniae FADDI-KP132 (mcr-1 positive); test: as above; format: in vivo; conditions: for Tukey HSD diff, Pre-treatment minus treated group (Log10 CFU/lung) / Tukey HSD diff, Vehicle minus treated group (Log10 CFU/lung): Fig. f; for Log10 CFU/lung: Figure 3f, individual mice
Protocol: as §1

[4] = tested on: A. baumannii FADDI-AB30; test: Neutropenic mouse thigh infection model; format: in vivo; conditions: for diff of mean Log10 CFU/lung, Pre-treament minus treatment / diff of mean Log10 CFU/lung, Vehicle minus treatment / Log10 CFU/lung, Thigh 1 / Log10 CFU/lung, Thigh 2 / Log10 CFU/lung, Thigh 3 / Log10 CFU/lung, Thigh 4: 45mg/kg/d; for Log10 CFU/lung, Thigh 1 / Log10 CFU/lung, Thigh 2 / Log10 CFU/lung, Thigh 3 / Log10 CFU/lung, Thigh 4: neutropenic mouse thigh infection; for Log10 CFU/lung, Thigh 1: Thigh 1 (Supp Fig. 4); for Log10 CFU/lung, Thigh 2: Thigh 2 (Supp Fig. 4); for Log10 CFU/lung, Thigh 3: Thigh 3 (Supp Fig. 4); for Log10 CFU/lung, Thigh 4: Thigh 4 (Supp Fig. 4)
Protocol: The experimental methodology for the neutropenic mouse thigh infection model was previously described in detail. Briefly, Swiss mice (female, 7-week-old, 22–28 g) were rendered neutropenic by intraperitoneal administration of cyclophosphamide 4 days (150 mg/kg) and 1 day (100 mg/kg) prior to inoculation. Thigh infection was established by the administration of a 50 µL bolus of early log-phase bacterial suspension (4 × 10^8 CFU/mL) directly into each thigh of two mice in each group (n = 4 thighs); this method is well accepted in antibiotic pharmacokinetic/ pharmacodynamic studies to minimize animal usage. Lipopeptide solutions were prepared in sterile saline. At 2 h after inoculation, mice were administered a lipopeptide or control solution via an intraperitoneal bolus injection at 15 mg/kg, three doses every 8 h. At 0 and 24 h after the administration, animals were euthanized and each thigh was collected and homogenized under sterile conditions. Homogenate was filtered and the filtrate was collected, serially diluted in sterile saline, and spread on nutrient agar plates. Agar plates were incubated at 37 °C overnight for bacterial colony counting and the bacterial load of both thighs (log10 CFU/thigh) in each mouse was calculated. In vivo efficacy was calculated as the difference of the log10 CFU/thigh values between the treated mice at 24 h and the pre-treatment (control) at 0 h (Δlog10 CFU/thigh = log10 [treated] CFU/thigh − log10 [pre-treatment] CFU/thigh).

[5] = tested on: K. pneumoniae FADDI-KP132; test: MIC, polymyxin-resistant isolate; format: cell-based, Klebsiella pneumoniae; conditions: mcr-1 positive
Protocol: MICs were determined in cation-adjusted Mueller–Hinton broth (CaMHB) by the broth micro-dilution method against ATCC strains and clinical isolates. MICs in the presence of Survanta® were determined as described above against P. aeruginosa ATCC 27853. In the 100 μL of fresh CaMHB containing polymyxins, 10% Survanta® (v/v, 2.5 mg/mL phospholipids) was added. MICs in the presence and absence of Survanta® were compared to determine the effect of binding to lung surfactant on the antibacterial activity of polymyxins.

[6] = Plasma pharmacokinetics in mice; format: in vivo, mouse
Protocol: (§2) The plasma pharmacokinetic profiles of F365 and polymyxin B were assessed in Swiss mice (female, 7-week-old, 22–28 g) after a single intraperitoneal dose (5 mg/kg, n = 3). Blood samples were collected at various time points over 24 h post dosing for analysis. The plasma pharmacokinetic profiles of F365 (n = 5) and polymyxin B (1 mg/kg, n = 11) in Sprague-Dawley rats (male, 10-week-old, 280 to 330 g) were assessed after intravenous administration (1 min) of F365 and polymyxin B via an indwelling jugular vein cannula. Blood samples (~0.3 mL) were collected via an indwelling carotid artery cannula at various time points over 24 h post dosing. Urine samples were collected at 4 °C using a metabolic cage during the period between 0 and 24 h post dosing. Concentrations of F365 and polymyxin B in plasma and urine samples were determined using LC-MS/MS and pharmacokinetic analysis was conducted using WinNonlin (Pharsight Corp., Mountain View, CA). The ELF pharmacokinetic profiles of F365 and polymyxin B was determined in neutropenic Swiss mice (female, 7-week-old, 22–28 g) after subcutaneous injection (40 mg/kg, n = 3). Bronchoalveolar lavage (BAL) samples were collected at various time points over 24 h post dosing from the cannulated trachea using Milli-Q water as BAL washing media. The average volume of ELF in mice was calculated by the ratio of urea concentrations in plasma and BAL samples. Concentrations of F365 and polymyxin B in plasma and BAL were analyzed by LC-MS/MS. Pharmacokinetic parameters were calculated using a non-compartment model with WinNonlin. For mouse, rat, and human plasma protein binding of F365 and polymyxin B, pooled plasma samples (n = 3) from each species were spiked with F365 or polymyxin B. The spiked plasma samples were subjected to ultrafiltration and the corresponding filtrates were analyzed by LC-MS/MS to determine the concentration of F365 and polymyxin B and the protein binding in each species.

[7] = format: in vitro ADME; conditions: plasma
Protocol: as §2

[8] = tested on: P. aeruginosa FADDI-PA090; format: cell-based, Pseudomonas aeruginosa
How it was run: (§3)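 Compounds were serially diluted in CaMHB, bacteria were added, and the lowest inhibitory concentration was recorded after broth microdilution testing.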

[9] = tested on: P. aeruginosa FADDI-PA070; format: cell-based, Pseudomonas aeruginosa
How it was run: as §3

Molecule: Polymyxin B [reference compound]
- Tukey HSD diff, Pre-treatment minus treated group (Log10 CFU/lung) ([1]; 90mg/kg/d): -1.5075
- Tukey HSD diff, Vehicle minus treated group (Log10 CFU/lung) ([1]; 90mg/kg/d): -0.114
- Log10 CFU/lung ([1]; 90mg/kg/d): 8.23 Log10 CFU/lung and 8.17 Log10 CFU/lung and 7.75 Log10 CFU/lung
- Tukey HSD diff, Pre-treatment minus treated group (Log10 CFU/lung) ([2]; 90mg/kg/d): -0.1967
- Tukey HSD diff, Vehicle minus treated group (Log10 CFU/lung) ([2]; 90mg/kg/d): 0.1873
- Log10 CFU/lung ([2]; 90mg/kg/d): 7.28 Log10 CFU/lung and 7.23 Log10 CFU/lung and 7.74 Log10 CFU/lung
- Tukey HSD diff, Pre-treatment minus treated group (Log10 CFU/lung) ([3]; 90mg/kg/d): -1.82
- Tukey HSD diff, Vehicle minus treated group (Log10 CFU/lung) ([3]; 90mg/kg/d): 1.0725
- Log10 CFU/lung ([3]; 90mg/kg/d): 7.88 Log10 CFU/lung and 8.02 Log10 CFU/lung and 6.98 Log10 CFU/lung and 6.57 Log10 CFU/lung
- diff of mean Log10 CFU/lung, Pre-treament minus treatment ([4]; one way ANOVA comparison): 3.14 log10 CFU/thigh
- diff of mean Log10 CFU/lung, Vehicle minus treatment ([4]; one way ANOVA comparison): 3.4475 log10 CFU/thigh
- Log10 CFU/lung, Thigh 1 [4]: 5.16 log10 CFU/thigh
- Log10 CFU/lung, Thigh 2 [4]: 5.25 log10 CFU/thigh
- Log10 CFU/lung, Thigh 3 [4]: 3.38 log10 CFU/thigh
- Log10 CFU/lung, Thigh 4 [4]: 2.23 log10 CFU/thigh
- MIC K. pneumoniae FADDI-KP132 [5]: 8 µg/mL
- half-life ([6]; mouse, in vivo, ip, 5 mg/kg): 84 min
- Protein binding ([7]; human): 68%
- Protein binding ([7]; mouse): 95%
- Protein binding ([7]; rat): 80%
- MIC P. aeruginosa FADDI-PA090 ([8]; polymyxin-resistant): 4 µg/mL
- MIC P. aeruginosa FADDI-PA070 ([9]; polymyxin-resistant): > 32 µg/mL

Molecule: CC[C@@H]1NC(=O)[C@@H](CC(C)C)NC(=O)[C@H](CCN)NC(=O)[C@@H](NC(=O)[C@H](CN)NC(=O)[C@@H](NC(=O)[C@H](CCN)NC(=O)c2ccc(Cl)cc2Cl)[C@@H](C)O)CCNC(=O)[C@H]([C@@H](C)O)NC(=O)[C@H](CCN)NC(=O)[C@H](CCN)NC1=O [Lipopeptide F365] (HELM PEPTIDE1{[O=C(c1ccc(Cl)cc1Cl)[*:2]].[Dab].T.[NC[C@H](N[*:1])C(=O)[*:2]].[Dab].[Dab].[dL].[Abu].[Dab].[Dab].T}$PEPTIDE1,PEPTIDE1,5:R3-11:R2$$$V2.0)
- Tukey HSD diff, Pre-treatment minus treated group (Log10 CFU/lung) ([1]; 120mg/kg/d): 2.4325
- Tukey HSD diff, Vehicle minus treated group (Log10 CFU/lung) ([1]; 120mg/kg/d): 3.826
- Tukey HSD diff, Pre-treatment minus treated group (Log10 CFU/lung) ([1]; 240mg/kg/d): 4.209
- Tukey HSD diff, Vehicle minus treated group (Log10 CFU/lung) ([1]; 240mg/kg/d): 5.603
- Log10 CFU/lung ([1]; 120mg/kg/d): 4.13 Log10 CFU/lung and 5.08 Log10 CFU/lung and 3.12 Log10 CFU/lung
- Log10 CFU/lung ([1]; 240mg/kg/d): 1.94 Log10 CFU/lung and 2.42 Log10 CFU/lung and 2.64 Log10 CFU/lung
- Tukey HSD diff, Pre-treatment minus treated group (Log10 CFU/lung) ([2]; 120mg/kg/d): 0.69
- Tukey HSD diff, Vehicle minus treated group (Log10 CFU/lung) ([2]; 120mg/kg/d): 1.074
- Tukey HSD diff, Pre-treatment minus treated group (Log10 CFU/lung) ([2]; 240mg/kg/d): 3.307
- Tukey HSD diff, Vehicle minus treated group (Log10 CFU/lung) ([2]; 240mg/kg/d): 3.691
- Log10 CFU/lung ([2]; 120mg/kg/d): 6.56 Log10 CFU/lung and 6.03 Log10 CFU/lung and 7.00 Log10 CFU/lung
- Log10 CFU/lung ([2]; 240mg/kg/d): 4.07 Log10 CFU/lung and 3.82 Log10 CFU/lung and 3.85 Log10 CFU/lung
- reduction in CFU/lung ([3]; 240 mg/kg/d subcutaneously, 24 h, maximum over the polymyxin-resistant isolates): up to 4.65 log10 CFU/lung
- Tukey HSD diff, Pre-treatment minus treated group (Log10 CFU/lung) ([3]; 120mg/kg/d): 1.795
- Tukey HSD diff, Vehicle minus treated group (Log10 CFU/lung) ([3]; 120mg/kg/d): 4.6875
- Tukey HSD diff, Pre-treatment minus treated group (Log10 CFU/lung) ([3]; 240mg/kg/d): 4.6475
- Tukey HSD diff, Vehicle minus treated group (Log10 CFU/lung) ([3]; 240mg/kg/d): 7.54
- Log10 CFU/lung ([3]; 120mg/kg/d): 4.02 Log10 CFU/lung and 5.39 Log10 CFU/lung and 2.64 Log10 CFU/lung and 2.94 Log10 CFU/lung
- Log10 CFU/lung ([3]; 240mg/kg/d): 0.00 Log10 CFU/lung (2×) and 1.64 Log10 CFU/lung and 1.94 Log10 CFU/lung
- reduction in CFU/thigh beyond polymyxin B ([4]; 45 mg/kg/d IP in 3 divided doses every 8 h, 24 h): > 2.0 log10 CFU/thigh
- diff of mean Log10 CFU/lung, Pre-treament minus treatment ([4]; one way ANOVA comparison): 5.655 log10 CFU/thigh
- diff of mean Log10 CFU/lung, Vehicle minus treatment ([4]; one way ANOVA comparison): 5.9625 log10 CFU/thigh
- diff of mean Log10 CFU/lung, Polymyxin B minus F365 ([4]; both 45mg/kg/d, one way ANOVA comparison, Polymyxin B - F365): 2.515 log10 CFU/thigh
- Log10 CFU/lung, Thigh 1 [4]: 2.83 log10 CFU/thigh
- Log10 CFU/lung, Thigh 2 [4]: 0 log10 CFU/thigh
- Log10 CFU/lung, Thigh 3 [4]: 3.13 log10 CFU/thigh
- Log10 CFU/lung, Thigh 4 [4]: 0 log10 CFU/thigh
- MIC K. pneumoniae FADDI-KP132 [5]: 8 µg/mL (≈ 6.9 µM)
- Plasma concentration, single mouse ([6]; 5 mg/kg IP, 0.28 h): 6.79
- AUC(0-inf) ([6]; mouse, in vivo, ip, 5 mg/kg): 7920 ng·h/mL
- half-life ([6]; mouse, in vivo, ip, 5 mg/kg): 18 min
- fraction unbound ([7]; human): 0.55
- fraction unbound ([7]; mouse): 0.64
- fraction unbound ([7]; rat): 0.67
- MIC P. aeruginosa FADDI-PA090 ([8]; FADDI-PA090): 8 µg/mL (≈ 6.9 µM)
- MIC P. aeruginosa FADDI-PA070 ([9]; FADDI-PA070): > 32 µg/mL
